Source: the supplement of paper PMC10307832

Experiments:
Experiment in all cases: relative viability (nuclei count vs DMSO), 5 days (fraction); higher = more cells survive
Linifanib + Luminespib = compound: Cc1ccc(F)c(NC(=O)Nc2ccc(-c3cccc4[nH]nc(N)c34)cc2)c1 [Linifanib] + CCNC(=O)c1noc(-c2cc(C(C)C)c(O)cc2O)c1-c1ccc(CN2CCOCC2)cc1 [Luminespib] (partner 0.01 µM)
Summary of the method: (§1)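 After 5 days of treatment, lung cancer cells in 1536-well plates were fixed and stained in a single step (final 0.05% Triton X-100, 1% formaldehyde, 1 ug/ml Hoechst) and their nuclei counted on 4× images. Treatment had been applied by pin tool the day after seeding as one drug alone or as a fixed anchor-drug dose with five library-drug doses (not always all listed) in √10 steps. Relative viability is the nuclei count of treated wells divided by that of vehicle wells, and values are medians of duplicate plates.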

Linifanib + Alpelisib = compound: Cc1ccc(F)c(NC(=O)Nc2ccc(-c3cccc4[nH]nc(N)c34)cc2)c1 [Linifanib] + Cc1nc(NC(=O)N2CCC[C@H]2C(N)=O)sc1-c1ccnc(C(C)(C)C(F)(F)F)c1 [Alpelisib] (partner 2 µM)
Summary of the method: as §1

Linifanib + OSI-027 = compound: Cc1ccc(F)c(NC(=O)Nc2ccc(-c3cccc4[nH]nc(N)c34)cc2)c1 [Linifanib] + COc1cccc2cc(-c3nc([C@H]4CC[C@H](C(=O)O)CC4)n4ncnc(N)c34)[nH]c12 [OSI-027] (partner 0.5 µM)
Summary of the method: as §1

Cell Line	relative viability (Linifanib + Luminespib; first compound 0.03162 µM)	relative viability (Linifanib + Luminespib; first compound 0.1 µM)	relative viability (Linifanib + Luminespib; first compound 0.3162 µM)	relative viability (Linifanib + Alpelisib; first compound 0.03162 µM)	relative viability (Linifanib + Alpelisib; first compound 0.1 µM)	relative viability (Linifanib + Alpelisib; first compound 0.3162 µM)	relative viability (Linifanib + OSI-027; first compound 0.03162 µM)	relative viability (Linifanib + OSI-027; first compound 0.1 µM)	relative viability (Linifanib + OSI-027; first compound 0.3162 µM)
201T	1.1	1.06	1.03	1	1.06	0.978	0.671	0.86	0.745
A-427	0.912	1.09	0.814	1.13	1.16	1.09	0.526	0.512	0.423
ABC-1	0.497	0.558	0.783	0.928	1.05	0.927	0.506	0.433	0.381
BEN	0.276	0.49	0.233	0.963	1.11	0.992	0.28	0.295	0.311
CAL-12T	0.438	0.751	0.364	1.27	1.3	1.28	0.761	0.736	0.73
COR-L23	0.673	0.892	0.705	0.81	0.957	0.732	0.875	0.786	0.722
COR-L 105	0.807	0.889	0.556	1	1.02	1.01	0.698	0.874	0.602
ChaGo-K-1	0.636	0.777	0.563	–	–	–	0.584	0.602	0.673
EKVX	0.838	0.962	0.854	0.9	1.14	0.831	0.756	0.707	0.712
EMC-BAC-2	1.2	1.19	1.14	0.778	0.792	0.683	0.439	0.361	0.375
EPLC-272H	0.405	0.392	0.419	0.75	1.02	0.909	0.26	0.327	0.29
H3255	0.85	0.94	0.976	0.752	0.787	0.706	0.58	0.606	0.583
HARA	1.12	0.651	0.707	0.864	0.983	0.756	0.569	0.571	0.498
HCC-15	0.387	0.278	0.3	0.881	0.941	0.887	0.735	0.795	0.7
HCC-44	0.903	0.954	1.05	0.82	0.824	0.793	0.62	0.596	0.478
HCC-78	–	–	–	0.339	0.357	0.363	0.391	0.396	0.344
HCC-366	–	–	–	0.533	0.664	0.357	0.898	1.29	0.795
HCC-827	0.549	0.669	0.622	0.986	1.06	0.922	0.82	0.93	0.716

Cell Line	relative viability (Linifanib + Luminespib; first compound 0.03162 µM)	relative viability (Linifanib + Luminespib; first compound 0.1 µM)	relative viability (Linifanib + Luminespib; first compound 0.3162 µM)	relative viability (Linifanib + Alpelisib; first compound 0.03162 µM)	relative viability (Linifanib + Alpelisib; first compound 0.1 µM)	relative viability (Linifanib + Alpelisib; first compound 0.3162 µM)	relative viability (Linifanib + OSI-027; first compound 0.03162 µM)	relative viability (Linifanib + OSI-027; first compound 0.1 µM)	relative viability (Linifanib + OSI-027; first compound 0.3162 µM)
HOP-62	0.927	0.964	0.866	1.38	1.03	1.07	0.982	0.874	0.767
LC-2-ad	0.968	0.958	1.05	0.749	0.912	0.752	0.722	0.951	0.855
LCLC-97TM1	0.721	0.766	0.595	0.284	0.292	0.246	0.718	0.624	0.563
LCLC-103H	0.971	0.973	0.889	0.838	0.927	0.894	0.514	0.481	0.408
LK-2	0.189	0.201	0.232	0.895	1.06	1.01	0.212	0.21	0.261
LOU-NH91	0.394	0.324	0.319	0.686	0.771	0.704	0.697	0.796	0.709
LU99A	0.205	0.246	0.268	0.574	0.618	0.539	0.323	0.326	0.338
LXF-289	0.766	0.866	0.674	1.11	1.04	1.02	0.905	0.829	0.774
NCI-H23	0.238	0.217	0.225	0.563	0.807	0.76	0.577	0.75	0.572
NCI-H322M	0.88	0.863	0.882	0.81	0.823	0.754	0.629	0.584	0.503
NCI-H358	0.366	0.374	0.416	0.897	0.879	0.795	0.836	1.06	0.748
NCI-H441	0.371	0.297	0.252	0.649	1.05	0.735	0.588	0.767	0.607
NCI-H460	0.0304	0.0311	0.0301	0.432	0.602	0.469	0.682	0.768	0.611
NCI-H520	0.171	0.204	0.226	0.789	0.801	0.794	0.271	0.313	0.3
NCI-H596	1.02	1.1	1.17	0.544	0.517	0.431	0.625	0.879	0.71
NCI-H647	0.149	0.325	0.114	1.07	1.21	0.963	0.703	0.795	0.587
NCI-H650	0.816	0.611	0.71	1.09	1.04	1.14	0.493	0.584	0.514
